Assay results as given in patent publication EP4653437A2 (Innovo Therapeutics Inc., priority 2023, dated 2024).

Experiments:
human 15-PGDH = biological target: T1, human 15-PGDH (Homo sapiens, UniProt P15428); test: Evaluation of 15-PGDH inhibitory activity (fluorescence enzyme assay, NAD+/PGE2); type: biochemical; conditions: human 15-PGDH enzyme, fluorescence Vmax
T1 construct: purchased R&D System 5660-DH
T1 sequence (P15428 1-266): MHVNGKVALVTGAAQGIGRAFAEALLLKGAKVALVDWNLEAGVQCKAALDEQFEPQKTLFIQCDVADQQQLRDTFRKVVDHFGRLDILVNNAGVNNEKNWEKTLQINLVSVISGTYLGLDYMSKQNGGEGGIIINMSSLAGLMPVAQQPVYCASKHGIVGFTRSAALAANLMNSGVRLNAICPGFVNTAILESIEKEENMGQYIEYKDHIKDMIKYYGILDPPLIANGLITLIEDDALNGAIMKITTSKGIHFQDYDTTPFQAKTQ
Protocol: 15-PGDH inhibition activity of Example compounds was measured as follows. 6.7 ng of human 15-PGDH (R&D System# 5660-DH) enzyme (10 µL) was added to a black 96 well plate, 60 µL of buffer (50 mM Tris-HCl, pH 7.5, 0.01% Tween 20) was added, and 10 µL of 200 µM β-Nicotinamide adenine dinucleotide sodium salt (Sigma, Cat# N0632-5G) was added. 10 µL of (10x) compound solution in DMSO was added and reacted for 10 minutes at room temperature.

A549 cells = test: Measurement of PGE2-increasing activity in A549 cells (IL-1β stimulated, PGE2 quantified in supernatant); type: cell-based; conditions: Homo sapiens, 24 h; concentration of 1 µM of each compound; IL-1β treated A549 cells; read-out: Increased PGE2 production in A549 cells
Summary of the method: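 PGE2 secreted into the supernatant was measured by immunoassay 24 h after treatment. Before treatment, A549 cells were cultured 24 h in 10% FBS F12K, washed, and placed in serum-free medium containing compound (DMSO 0.1% final) plus or minus IL-1β, incubated at 37 °C, 5% CO2.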

| IC50 (human 15-PGDH) [nM] | SMILES | fold induction at 1 µM (A549 cells) |
| --- | --- | --- |
| ≤ 100 | CN(C)C1CN(c2ccc(-c3cccc4c(C(=O)N5CCCCC5)cnn34)cn2)C1 [Example 218, (7-(6-(3-(dimethylamino)azetidin-1-yl)pyridin-3-yl)pyrazolo[1,5-a]pyridin-3-yl)(piperidin-1-yl)methanone] | > 1.5 |
| ≤ 100 | Cc1nc(-c2ncc(-c3cccc4c(C(=O)N5CCCCC5)cnn34)cn2)no1 [Example 317, [7-[2-(5-methyl-1,2,4-oxadiazol-3-yl)pyrimidin-5-yl]pyrazolo[1,5-a]pyridin-3-yl]-(1-piperidyl)methanone] | > 1.5 |
| ≤ 100 | Cc1nc(-c2cc(N)cc(-c3cccc4c(C(=O)N5CCCCC5)cnn34)c2)no1 [Example 343, (7-(3-amino-5-(5-methyl-1,2,4-oxadiazol-3-yl)phenyl)pyrazolo[1,5-a]pyridin-3-yl)(piperidin-1-yl)methanone] | > 1.5 |
| ≤ 100 | O=C(c1cnn2c(-c3ccc(N4CCC4)nc3)cccc12)N1CCCCC1 [Example 206, (7-(6-(azetidin-1-yl)pyridin-3-yl)pyrazolo[1,5-a]pyridin-3-yl)(piperidin-1-yl)methanone] | > 1.5 |
| ≤ 100 | CN1CCC(NC(=O)c2cccc(-c3cccc4c(C(=O)N5CCCCC5)cnn34)c2)CC1 [Example 33, N-(1-methylpiperidin-4-yl)-3-(3-(piperidine-1-carbonyl)pyrazolo[1,5-a]pyridin-7-yl)benzamide] | > 1.5 |
| ≤ 100 | O=C(c1cnn2c(-c3ccc(N4CCOC4=O)nc3)cccc12)N1CCCC(F)C1 (centres unmarked) [Example 383, 3-(5-(3-(3-fluoropiperidine-1-carbonyl)pyrazolo[1,5-a]pyridin-7-yl)pyridin-2-yl)oxazolidin-2-one] | > 1.5 |
| ≤ 100 | COCCNC(=O)c1cncc(-c2cccc3c(C(=O)N4CCCCC4)cnn23)c1 [Example 45, N-(2-methoxyethyl)-5-(3-(piperidine-1-carbonyl)pyrazolo[1,5-a]pyridin-7-yl)nicotinamide] | > 1.5 |
